From patent US10047151B2, “Methods for the treatment of cancer and inflammatory diseases using cereblon as a predictor” (Celgene Corporation, priority 2011, dated 2018)

How the values were obtained:
IRF4 = IRF4 protein level in H929 cells (Western blot); format: cell-based
Source text: In H929 cells, the cell cycle arrest in G1 phase by the drugs coincides with a reduction of tumor suppressor, pRb, phosphorylation and the oncogene and myeloma survival factor IRF4.

poly-ubiquitin chains = assay: Global polyubiquitination by immunofluorescence in H929 cells; format: cell-based; details: 1 μM, 30 minutes
Method: Specific antibodies for poly-ubiquitin chains were used to study the effect of immunomodulatory drugs on global levels of ubiquitination. H929 cells were treated with lenalidomide (1 μM), pomalidomide (1 μM) or proteasome inhibitor MG132. After 30 minutes cells were process for immunofluorescence. Global levels of K63-linked polyubiquitination were quantified by Cellomics.

DLBCL cells = assay: 3H-thymidine incorporation cell proliferation assay in DLBCL cell lines; format: cell-based; details: 0.01-100 μM, 5 days
Method: Cell proliferation was assessed using the ^3H-thymidine incorporation assay. Briefly, logarithmically growing DLBCL cells were cultured in 96-well culture plates in complete media with the indicated concentration of lenalidomide or DMSO control. Following incubation at 37° C. for 5 days, 1 μCi ^3H-thymidine (GE Healthcare Biosciences, Piscataway, N.J.) was added to each well for the final 5 hours of incubation. Cells were then harvested onto UniFilter GF/C filter plates (PerkinElmer, Waltham, Mass.) using a cell harvester (Tomtec, Hamden, Conn.) and the plates were allowed to dry overnight. The ^3H-thymidine incorporation of each well was then measured using a TopCount NXT Microplate Scintillation and Luminescence Counter (Packard BioScience, Meriden, Conn.). The percent inhibition of cell proliferation was calculated and normalized to DMSO control.
In order to define the place of lenalidomide for DLBCL therapy in specific patient populations and to understand the molecular mechanisms of efficacy, a panel of DLBCL cell lines was collected in this study. The DLBCL subtypes of the cell lines were confirmed based on literature information (Lenz G, et al., Proc Natl Acad Sci USA 2008; 105: 13520-5) and molecular analysis, including intracellular NF-κB activity or IRF4 expression, as well as gene expression profiling of key signature genes of activated B cells.

OCI-Ly10 DLBCL cells = assay: OCI-Ly10 human tumor xenograft model; format: in vivo
Method: . A total of 10×10^6 OCI-Ly10 DLBCL cells in 100% Matrigel (Becton Dickinson, San Jose, Calif.) were injected subcutaneously into the right flank of mice. Mice were monitored 2 or 3 times a week for the appearance of tumors. Once the tumors reached an average size of 100-150 mg, 10 mice in each group were treated with either vehicle (0.5% carboxymethyl cellulose: 0.25% Tween 80 in deionized H2O) or indicated doses of lenalidomide (qd×28, p.o.) or the positive control vincristine (q4d×4, i.v.). Mice were monitored daily for health status as well as tumor growth. Tumors of all mice were measured with a digital caliper and volumes calculated with the following formula: tumor volume (mm^3)=length (mm)×width (mm)^2. Mice were killed when tumor size exceeded 1000 mm^3.
To confirm the relevance of lenalidomide-mediated inhibition of NF-κB/IRF4 signaling in vivo in ABC-DLBCL, a subcutaneous OCI-Ly10 xenograft model was established. […] Compared with vehicle control group, lenalidomide treatment for 7 days reduced IRF4 expression and BCL-10 cleavage by 15-35% (p<0.05).

Nc1cccc2c1CN(C1CCC(=O)NC1=O)C2=O (centres unmarked) [lenalidomide, 3-(4-amino-1-oxo-1,3-dihydro-isoindol-2-yl)-piperidine-2,6-dione] was tested, and the “total level of protein IRF4” value (IRF4) was “decreased”, the K-63-linked ubiquitination (poly-ubiquitin chains) was “but not K-63-linked ubiquitination” and the “total K48-linked polyubiquitination” value (poly-ubiquitin chains) was “decrease”. The proliferation of cells (DLBCL cells; ABC-DLBCL cell lines, except for OCI-Ly3) was “significantly inhibited”, the proliferation of cells (DLBCL cells; PBML and GCB-DLBCL cells) was “minimal effects” and the tumor size (OCI-Ly10 DLBCL cells; 3-30 mg/kg po, qdX28, p<0.01) was “significantly decreased tumor size”. For the same compound, the “toxicity based upon mouse weight” value (OCI-Ly10 DLBCL cells; throughout study) was “No pronounced toxicity” and the “reduction of IRF4 expression and BCL-10 cleavage compared with vehicle control group” value (OCI-Ly10 DLBCL cells; treatment for 7 days, p<0.05) was 15-35%.
